Results from patent US20160346249A1 (priority 2012, published 2016).

How the values were obtained:
in vivo = settings: Crl:CD-1(ICR) BR, mouse, po; for AUC(0-t): AUC0-24
[1] = Rat pulmonary function study; format: in vivo; settings: for animals with test article-related clinical observations: 6 hours post-dosing
Description: There were eight male rats per group. Clinical examinations were performed daily, and detailed physical examinations were performed prior to dosing and again following pulmonary functional assessments. Four replicates of 2 animals from each treatment group were evaluated over a 2-week period. Following dose administration, the rats were placed in a head-out neck-sealed plethysmograph for measurement of pulmonary function parameters (respiratory rate, tidal volume, and calculated minute volume). Pulmonary function data were collected for at least 60 minutes prior to dosing (Day −1) and for at least 6 hours post-dosing on Day 0.

Clc1ccc([C@]23CNC[C@H]2C3)cc1Cl [amitifadine, (+)-1-(3,4-dichlorophenyl)-3-azabicyclo[3.1.0]hexane]
AUC(0-t) (in vivo; female, 10 mg/kg/day): 2490 ng·h/mL | Cmax (in vivo; female, 10 mg/kg/day): 323 ng/mL | Tmax (in vivo; female, 10 mg/kg/day): 2 h | AUC(0-t) (in vivo; female, 30 mg/kg/day): 9920 ng·h/mL | Cmax (in vivo; female, 30 mg/kg/day): 1140 ng/mL | Tmax (in vivo; female, 30 mg/kg/day): 2 h | AUC(0-t) (in vivo; female, 100 mg/kg/day): 20200 ng·h/mL | Tmax (in vivo; female, 100 mg/kg/day): 2 h | Cmax (in vivo; female, 150 mg/kg/day): 4940 ng/mL | Tmax (in vivo; female, 150 mg/kg/day): 2 h | AUC(0-t) (in vivo; male, 10 mg/kg/day): 1970 ng·h/mL | Cmax (in vivo; male, 10 mg/kg/day): 261 ng/mL | Tmax (in vivo; male, 10 mg/kg/day): 1 h | AUC(0-t) (in vivo; male, 30 mg/kg/day): 12800 ng·h/mL | Cmax (in vivo; male, 30 mg/kg/day): 1060 ng/mL | Tmax (in vivo; male, 30 mg/kg/day): 1 h | AUC(0-t) (in vivo; male, 100 mg/kg/day): 22300 ng·h/mL | Cmax (in vivo; male, 100 mg/kg/day): 3900 ng/mL | Tmax (in vivo; male, 100 mg/kg/day): 2 h | AUC(0-t) (in vivo; male, 150 mg/kg/day): 71100 ng·h/mL | Cmax (in vivo; male, 150 mg/kg/day): 5610 ng/mL | Tmax (in vivo; male, 150 mg/kg/day): 1 h | animals with test article-related clinical observations ([1]; 30 mg/kg): ⅜ | increased respiratory frequency ([1]; 100 mg/kg, 16 to 30 minutes post-dosing): 23% | animals with test article-related clinical observations ([1]; 100 mg/kg): 6/8 | elevated respiratory frequency ([1]; 100 mg/kg, later post-treatment intervals): ≥ 33% | NOAEL ([1]; male, Crl:CD(SD)IGS BR, rat, in vivo, single oral gavage): 30 mg/kg
